Entries after “also recorded” stand apart in the source; their conditions may differ. Like-named read-outs stand apart in the source and are kept apart here.
What was measured:
H460 = experiment: Cell-Titer Glo cell viability assay, H460; assay type: cell-based, human; conditions: for EC50: Homo sapiens
Description: (§1) On day 1, NSCLC cells were plated 3-5×10^4 cells/well in 96 well plates in their normal serum-containing media. […] Manufacturers instructions were followed for the assay. Experiments were conducted in triplicate to at least an n=3. Data was normalized as a percentage inhibition compared to DMSO only control wells and concentration-response analysis was performed using Prizm graphing software.
(§2) The concentration response curves were analyzed in two ways.

H322 = experiment: Cell-Titer Glo cell viability assay, H322; assay type: cell-based, human
Description: as §1, §2

A549 = experiment: Cell-Titer Glo cell viability assay, A549; assay type: cell-based, human
Description: as §1, §2

H292 xenograft = experiment: NSCLC xenograft tumor growth inhibition, H292; assay type: in vivo, mouse; conditions: oral gavage once a day for 14 days
Description: (§3) Female CD-1 nu/nu mice (Charles River Laboratories) were implanted with harvested NSCLC tumor cells in a single subcutaneous site on the flank of the mice in the axillary region. Tumors were allowed to grow to 200±50 mm^3, at which time the animals were sorted into treatment groups of 8 animals per group based on weight (±1 g body weight) and tattooed on the tail for permanent identification. Tumor volumes and body weights were determined twice weekly. The tumor volume was determined by measuring in two directions with vernier calipers and calculated using the formula: Tumor volume=(length×width^2)/2. The data were plotted as the % change in mean values of tumor volume and body weight for each group. […]. Tumor growth inhibition studies were dosed by oral gavage once a day for 14 days. Pharmacodynamic studies were dosed by oral gavage for 1-3 days with tumors from 4 control and 4 TARCEVA™ treated animals harvested and snap frozen in liquid nitrogen 4 hours after dosing on Days 1, 2 and 3.

A549 xenograft = experiment: NSCLC xenograft tumor growth inhibition, A549; assay type: in vivo, mouse; conditions: oral gavage once a day for 14 days
Description: as §3

Calu6 = experiment: Cell-Titer Glo cell viability assay, Calu6; assay type: cell-based, human; conditions: for EC50: Homo sapiens
Description: as §1, §2

H441 = experiment: Cell-Titer Glo cell viability assay, H441; assay type: cell-based, human
Description: as §1, §2

H358 = experiment: Cell-Titer Glo cell viability assay, H358; assay type: cell-based, human
Description: as §1, §2

Calu6 xenograft = experiment: NSCLC xenograft tumor growth inhibition, Calu6; assay type: in vivo, mouse; conditions: oral gavage once a day for 14 days
Description: as §3

H1703 = experiment: Cell-Titer Glo cell viability assay, H1703; assay type: cell-based, human; conditions: for EC50: Homo sapiens
Description: as §1, §2

MiaPaca2 = experiment: growth inhibition of pancreatic cell line in vitro, MiaPaca2; assay type: cell-based
Excerpt: (§4) We next extended these studies to ask whether these observations would be applicable to other cancer cell types.

H292 = experiment: Cell-Titer Glo cell viability assay, H292; assay type: cell-based, human
Description: as §1, §2

H358 xenograft = experiment: NSCLC xenograft tumor growth inhibition, H358; assay type: in vivo, mouse; conditions: oral gavage once a day for 14 days
Description: as §3

SW1573 = experiment: Cell-Titer Glo cell viability assay, SW1573; assay type: cell-based, human
Description: as §1, §2

H441 xenograft = experiment: NSCLC xenograft tumor growth inhibition, H441; assay type: in vivo, mouse; conditions: oral gavage once a day for 14 days
Description: as §3

H460 xenograft = experiment: NSCLC xenograft tumor growth inhibition, H460; assay type: in vivo, mouse; conditions: oral gavage once a day for 14 days
Description: as §3

BxPC3 = experiment: growth inhibition of pancreatic cell line in vitro, BxPC3; assay type: cell-based
Excerpt: as §4

NSCLC cells = experiment: anti-phosphotyrosine capture and LC-MS/MS (iTRAQ) after erlotinib exposure; assay type: cell-based, human
Description: Anti-phosphotyrosine immunoaffinity resins were prepared by covalent coupling to a solid support by standard methods. Freshly prepared immunoaffinity resins were used for each biological experiment to maximize binding and reduce carryover. Briefly, anti-phosphotyrosine antibodies were crosslinked to solid-support and non-covalently bound IgG removed by low pH elution. […] Proteins isolated by anti-phosphotyrosine affinity selection were measured by iTRAQ labeling of tryptic peptides as previously described (Ross et al, (2004) Mol Cell Proteomics 3(12) 1154-1169; Haley et al., 2004). Peptide masses and sequence information were determined by electrospray LC-MS/MS and database searching. Peptides with confidence levels of >=90% with scores of >=20 were considered, after which spectra were inspected manually. […]. Proteins were clustered by temporal log2 protein expression ratios using Euclidian hierarchical methods and self-organizing maps.
Proteins associated with survival signaling and epithelial-mesenchymal cell phenotypes were isolated and measured using multiple experimental approaches, including mass spectrometry. Individual protein abundance, or extent of phosphorylation on tyrosine residues, was compared between different NSCLC tumor lines. Mass spectrometry approaches additionally included cellular fractionation, phosphotyrosine protein-capture and phosphopeptide-capture using four NSCLC model cell lines. The NSCLC lines were chosen to reflect a range of sensitivities to pharmacological EGFR inhibition both in vitro and in xenografts. These NSCLC lines also span both epithelial and mesenchymal-like tumor phenotypes arising from EMT-like transitions occurring during tumor progression. Two MS quantitation approaches were pursued. First, between-cell comparisons were performed where membrane-particulate and cytosolic fractions were isolated and differences in protein abundance measured. In both cases the iTRAQ peptide labeling method was used to allow relative quantitation of proteins isolated under the different biological conditions. […]. Protein samples were proteolytically cleaved with trypsin, separately labeled with isobaric stable isotope mass labels (iTRAQ; Ross et al., 2005; Petti et al. 2005), combined and subjected to LC-MS/MS. Protein identification criteria conformed to the guidelines proposed by Bradshaw et al. (Bradshaw R. A., Burlingame A. L., Carr S., and Aebersold R. (2006) Mol Cell Proteomics 5:787-788).

C#Cc1cccc(Nc2ncnc3cc(OCCOC)c(OCCOC)cc23)c1 [erlotinib, [6,7-bis(2-methoxyethoxy)-4-quinazolin-4-yl]-(3-ethynylphenyl)amine]
Max. Inhibition (%) (H460): 30% | Classification of sensitivity to erlotinib-mediated growth inhibition (H460; H460, in vitro and in xenografts): relatively insensitive | EC50 (H460; NCI-H460, 72 h, read-out: EC50 Half Maximal): 5 µM | EC50 (H460; NCI-H460, read-out: EC50, growth inhibition in vitro): > 10 µM | Max. Inhibition (%) (H322): 80% | Classification of sensitivity to erlotinib-mediated growth inhibition (H322; H322): Sensitive | EC50 (H322; Homo sapiens, NCI-H322, 72 h, read-out: EC50 Half Maximal): 0.4 µM | Max. Inhibition (%) (A549): 30% | Classification of sensitivity to erlotinib-mediated growth inhibition (A549; A549, in vitro and in xenografts): intermediate sensitivity | EC50 (A549; Homo sapiens, A549, 72 h, read-out: EC50 Half Maximal): 5 µM | % TGI Day 15 (H292 xenograft): 85% | % TGI Day 15 (A549 xenograft): 49% | Max. Inhibition (%) (Calu6): 46% | Classification of sensitivity to erlotinib-mediated growth inhibition (Calu6; Calu6, in vitro and in xenografts): relatively insensitive | EC50 (Calu6; Calu-6, 72 h, read-out: EC50 Half Maximal): > 10 µM | EC50 (Calu6; Calu-6, read-out: EC50, growth inhibition in vitro): > 10 µM | Max. Inhibition (%) (H441): 55% | Classification of sensitivity to erlotinib-mediated growth inhibition (H441; H441, in vitro and in xenografts): Sensitive; also recorded: intermediate | EC50 (H441; Homo sapiens, NCI-H441, 72 h, read-out: EC50 Half Maximal): 2 µM | Max. Inhibition (%) (H358): 72% | Classification of sensitivity to erlotinib-mediated growth inhibition (H358; H358, in vitro and in xenografts): Sensitive | EC50 (H358; Homo sapiens, NCI-H358, 72 h, read-out: EC50 Half Maximal): 0.6 µM | % TGI Day 15 (Calu6 xenograft): 0% | Max. Inhibition (%) (H1703): 30% | Classification of sensitivity to erlotinib-mediated growth inhibition (H1703; H1703): relatively insensitive | EC50 (H1703; NCI-H1703, 72 h, read-out: EC50 Half Maximal): 7 µM | EC50 (H1703; NCI-H1703, read-out: EC50, growth inhibition in vitro): > 10 µM | sensitivity to growth inhibition by erlotinib (MiaPaca2): relatively insensitive | Max. Inhibition (%) (H292): 69% | Classification of sensitivity to erlotinib-mediated growth inhibition (H292; H292, in vitro and in xenografts): Sensitive | EC50 (H292; Homo sapiens, NCI-H292, 72 h, read-out: EC50 Half Maximal): 0.1 µM | % TGI Day 15 (H358 xenograft): 25% | Max. Inhibition (%) (SW1573): 25% | EC50 (SW1573; Homo sapiens, SW1573, 72 h, read-out: EC50 Half Maximal): 9 µM | Classification of sensitivity to erlotinib-mediated growth inhibition (SW1573; SW1573): relatively insensitive | % TGI Day 15 (H441 xenograft): 60% | % TGI Day 15 (H460 xenograft): 6% | sensitivity to growth inhibition by erlotinib (BxPC3): sensitive | phosphocapture of the p21-activated kinase PAK2 (NSCLC cells; H1703 cells, 1, 4 and 24 hours): stimulated at all time points | regulation of Actin-like protein-6A and β-actin (NSCLC cells; cells with an epithelial phenotype, within 1 hour of erlotinib exposure (1 μM)): upregulation | regulation of α- and γ-actins and vimentin phosphoproteins (NSCLC cells; mesenchymal-like NSCLC cells, within 1 hour of erlotinib exposure (1 μM)): Down regulation | phosphocapture of Rho-GEF7 (NSCLC cells; mesenchymal-like cells): significant erlotinib-dependent increase | tyrosine phosphorylation for Erk2, ubiquitin and the tyrosine phosphatases SHP-2 and BDP-18 (NSCLC cells; primarily associated with an epithelial cell state): downregulation
